Measured values published in patent US20250339409A1, “USES OF PAN BET INHIBITORS” (VYNE THERAPEUTICS INC., priority 2021, published 2025).
Where “and” joins values, the source holds several entries; their conditions need not be identical. Identical values can stand only once. Marks after values point to notes of the source that are not given here.

System: anti collagen antibodies induced arthritis (ACAIA)
Assay: Anti collagen antibodies induced arthritis (ACAIA) in mice, intra-articular treatment: paw thickness, arthritis clinical score, body weight;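 note: mouse arthritis induced by IV anti-collagen mAb on day 0 plus IP LPS on day 4, with body weight, caliper paw thickness and 0-4 paw score tracked against a day 0 baseline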
Details: for Clinical score of treated leg (Avg.) / Paw thickness Avg. Delta untreated -treated / Paw thickness of treated leg (Avg.) / Paw thickness of untreated leg (Avg.) / Percent change of weight per day (Av) / Percent change of weight per day (individual animal) / Δ clinical score untreated -treated, Avg. Delta: 10 mg/kg IA (Group 2)
[1] = BETi1 0.01 mg/kg IA (Group 5), Av
[2] = BETi1 0.01 mg/kg IA (Group 5), individual animals, 0.01 mg/kg
[3] = BETi1 0.1 mg/kg IA (Group 4), Av

## Cn1cc(-c2cccc(O)c2Oc2ccccc2)c2cc[nH]c2c1=O [BETi1]
Baseline
  Clinical score of treated leg (Avg.): 0.00 points
  Paw thickness Avg. Delta untreated -treated: −0.05 mm
  Paw thickness of treated leg (Avg.): 2.12 mm
  Paw thickness of untreated leg (Avg.): 2.07 mm
  Percent change of weight per day (Av): 100.00%
  Percent change of weight per day (individual animal): 100%
  Δ clinical score untreated -treated, Avg. Delta: 0.00 points
Day 3
  Clinical score of treated leg (Avg.): 0.00 points
  Paw thickness Avg. Delta untreated -treated: −0.01 mm
  Paw thickness of treated leg (Avg.): 2.16 mm
  Paw thickness of untreated leg (Avg.): 2.15 mm
  Percent change of weight per day (Av): 100.21%
  Percent change of weight per day (individual animal): 99.5% and 99.54% and 102.4038% and 101.3825% and 100.4673% and 98.1982% and 100%
  Δ clinical score untreated -treated, Avg. Delta: 0.00 points
Day 4
  Clinical score of treated leg (Avg.): 0.00 points
  Paw thickness Avg. Delta untreated -treated: −0.04 mm
  Paw thickness of treated leg (Avg.): 2.24 mm
  Paw thickness of untreated leg (Avg.): 2.20 mm
  Percent change of weight per day (Av): 100.95%
  Percent change of weight per day (individual animal): 100% and 99.07% and 102.8846% and 103.2258% and 100.9346% and 98.65% and 101.8779%
  Δ clinical score untreated -treated, Avg. Delta: 0.00 points
Day 5
  Clinical score of treated leg (Avg.): 0.00 points
  Paw thickness Avg. Delta untreated -treated: 0.01 mm
  Paw thickness of treated leg (Avg.): 2.16 mm
  Paw thickness of untreated leg (Avg.): 2.17 mm
  Percent change of weight per day (Av): 92.17%
  Percent change of weight per day (individual animal): 91.58% and 93.06% and 92.79% and 94.86% and 89.64% and 91.08%
  Δ clinical score untreated -treated, Avg. Delta: 0.00 points
Day 6
  Clinical score of treated leg (Avg.): 0.00* points
  Paw thickness Avg. Delta untreated -treated: 0.34*** mm
  Paw thickness of treated leg (Avg.): 2.17*** mm
  Paw thickness of untreated leg (Avg.): 2.51 mm
  Percent change of weight per day (Av): 92.02%
  Percent change of weight per day (individual animal): 93.56% and 91.67% and 92.31% and 91.1215% and 91.89% and 91.5493%
Day 7
  Clinical score of treated leg (Avg.): 0.50* points
  Paw thickness Avg. Delta untreated -treated: 0.77*** mm
  Paw thickness of treated leg (Avg.): 2.23** mm
  Paw thickness of untreated leg (Avg.): 3.00 mm
  Percent change of weight per day (Av): 91.86%
  Percent change of weight per day (individual animal): 92.57% and 89.81% and 93.75% and 91.59% and 91.44% and 92.02%
Day 8
  Clinical score of treated leg (Avg.): 0.83 points
  Paw thickness Avg. Delta untreated -treated: 1.04*** mm
  Paw thickness of treated leg (Avg.): 2.18** mm
  Paw thickness of untreated leg (Avg.): 3.22 mm
  Percent change of weight per day (Av): 90.62%
  Percent change of weight per day (individual animal): 92.08% and 88.89% and 94.23% and 87.85% and 90.99% and 89.67%
Day 10
  Clinical score of treated leg (Avg.): 0.17* points
  Paw thickness Avg. Delta untreated -treated: 1.27 mm
  Paw thickness of treated leg (Avg.): 2.14** mm
  Paw thickness of untreated leg (Avg.): 3.41 mm
  Percent change of weight per day (Av): 91.54%
  Percent change of weight per day (individual animal): 90.59% and 88.89% and 95.19% and 91.59% and 92.34% and 90.61%
Day 12
  Clinical score of treated leg (Avg.): 0.67 points
  Paw thickness Avg. Delta untreated -treated: 1.32 mm
  Paw thickness of treated leg (Avg.): 2.17 mm
  Paw thickness of untreated leg (Avg.): 3.48 mm
  Percent change of weight per day (Av): 94.92%
  Percent change of weight per day (individual animal): 95.54% and 93.98% and 98.08% and 92.99% and 95.05% and 93.9%
  Δ clinical score untreated -treated, Avg. Delta: 2.67 points
Day 6, * p < 0.05 vs. Vehicle
  Δ clinical score untreated -treated, Avg. Delta: 0.83* points
Day 7, * p < 0.05 vs. Vehicle
  Δ clinical score untreated -treated, Avg. Delta: 1.33* points
Day 8, * p < 0.05 vs. Vehicle
  Δ clinical score untreated -treated, Avg. Delta: 2.17* points
Day 10, * p < 0.05 vs. Vehicle
  Δ clinical score untreated -treated, Avg. Delta: 2.83* points
10 mg/kg IA, day 12
  reduction of arthritis score, treated vs untreated paw: 79.9%
  reduction of paw thickness, treated vs untreated paw: 37.6%
[1]
  Weight per day, Baseline: 20.6 g
  Weight per day, Day 3: 20.4 g
  Weight per day, Day 4: 19.9 g
  Weight per day, Day 5: 18.5 g
  Weight per day, Day 6: 18.1 g
  Weight per day, Day 7: 18.9 g
  Weight per day, Day 8: 18.5 g
  Weight per day, Day 10: 18.4 g
  Weight per day, Day 12: 19.1 g
[2]
  Weight per day, Baseline: 21 g (2×) and 20.9 g and 21.5 g and 21.4 g and 19.4 g and 18.7 g
  Weight per day, Day 3: 20.8 g and 20.6 g and 21.6 g and 20.9 g and 19.3 g and 18.8 g and 21 g
  Weight per day, Day 4: 21.1 g and 20.8 g and 20.9 g and 21.6 g and 17.4 g and 17.8 g and 19.6 g
  Weight per day, Day 5: 19.5 g and 18.7 g and 19.1 g and 20.2 g and 16.6 g and 16.8 g and 18.4 g
  Weight per day, Day 6: 19.1 g and 19 g and 18.6 g and 19.9 g and 15.6 g and 16.5 g and 18.1 g
  Weight per day, Day 7: 19.4 g and 19.3 g and 18.9 g and 20 g and 16 g and 19.9 g and 18.5 g
  Weight per day, Day 8: 19.3 g and 19.7 g and 18.9 g and 20.1 g and 16 g and 16.9 g and 18.5 g
  Weight per day, Day 10: 19.6 g and 19.5 g (2×) and 18.3 g and 16.2 g and 17.4 g and 18.6 g
  Weight per day, Day 12: 19.9 g and 20 g (2×) and 19.1 g and 16.9 g and 18.2 g and 19.3 g
[3]
  Weight per day, Baseline: 20.4 g
  Weight per day, Day 3: 20.6 g
  Weight per day, Day 4: 20.3 g
